These results are taken from patent US12391687B2, “Five-and-six-membered heterocyclic compound and use thereof as protein receptor kinase inhibitor” (SHANGHAI ENNOVABIO PHARMACEUTICALS CO., LTD., priority 2018, dated 2025).

In experiment [1] the target is Recombinant human TRKA (Homo sapiens (Human), UniProt P04629). Put plainly: In vitro activity test on TRKA kinase (HTRF kinEASE TK). Type of experiment: biochemical. The note with it: 14.68 μM ATP, 40 min, room temperature. On the procedure:
(§1) Recombinant human TRKA, TRKB, TRKC proteins were purchased from Carna Biosciences. HTRF kinEASE TK kit was purchased from Cisbio Bioassays. Synergy Neo 2 of Biotek was used to read the plate.
(§2) The tested compounds were subjected to 3-fold serial dilution to reach a final concentration of 1 μM to 0.05 nM (10 concentrations), duplicates for each concentration; and the DMSO concentration in the detection reaction was 1%.
0.2 ng/μL TRKA protein kinase, 1 μM TK Substrate-biotin polypeptide substrate, 14.68 μM ATP, 1×enzymatic buffer, 5 mM MgCl2, and 1 mM DTT. The assay plate was White Proxiplate384-Plus plate (PerkinElmer), and the reaction was incubated at room temperature for 40 min, and the assay volume was 10 μL.
(§3) 10 μL of detection reagent (containing 0.125 μM SA-XL665 and 5 μL 1×TK-Antibody) was added to the plate and incubated overnight at room temperature. Synergy Neo 2 was used to read the plate.
(§4) The 665/620 Ratio was converted according to the following formula into inhibition rate (%)=(1−Ratiotest/Ratiomax)×100%. Ratiomax was the value of positive controls without tested compound, and Ratiotest was the value of each concentration of different compounds. IC50 (nM) data was obtained by 4 parameter curve fitting (see Table 1).
(In TR-FRET formats the signal depends on donor and acceptor labels being close together.)

In experiment [2] the target is Recombinant human TRKB (Homo sapiens (Human), UniProt Q16620). Nature of the experiment: In vitro activity test on TRKB kinase (HTRF kinEASE TK). The experiment is classed as biochemical. As to conditions: 4.77 μM ATP, 50 min, room temperature. As to the method:
as §1, §2
0.037 ng/μL TRKB protein kinase, 1 μM TK Substrate-biotin polypeptide substrate, 4.77 μM ATP, 1× enzymatic buffer, 5 mM MgCl2, 1 mM MnCl2 and 1 mM DTT. The assay plate was White Proxiplate 384-Plus plate (PerkinElmer), the reaction was incubated at room temperature for 50 min, and the assay volume was 10 μL.
as §3, §4

Experiment [3] deals with Recombinant human TRKC (Homo sapiens (Human), UniProt Q16288). Nature of the experiment: In vitro activity test on TRKC kinase (HTRF kinEASE TK). Type of experiment: biochemical. As to conditions: 25.64 μM ATP, 40 min, room temperature. As to the method:
as §1, §2
0.037 ng/μL TRKC protein kinase, 1 μM TK Substrate-biotin polypeptide substrate, 25.64 μM ATP, 1× enzymatic buffer, 5 mM MgCl2, and 1 mM DTT. The detection plate was White Proxiplate 384-Plus plate (PerkinElmer), the reaction was incubated at room temperature for 40 min, and the assay volume was 10 μL.
as §3, §4

Experiment [4] addresses recombinant human TRKA (G595R) (Homo sapiens (Human), UniProt P04629, G595R). Put plainly: In vitro activity test on mutant TRKA (G595R) (HTRF kinEASE TK). The experiment is classed as biochemical. The note with it: 4.5 μM ATP, 30 min, room temperature; read-out: TRKA (G595R) IC 50. As to the method: The recombinant human TRKA (G595R), TRKA (G667C) and TRKC (G623R) proteins were purchased from SignalChem. HTRF kinEASE TK kit was purchased from Cisbio Bioassays. Synergy Neo 2 of Biotek was used to read the plate.
The tested compounds were subjected to 4-fold serial dilution to reach a final concentration of 1 μM to 0.004 nM (10 concentrates), duplicates for each concentration; and the final concentration of DMSO in the reaction was 1%.
0.12 ng/μL TRKA (G595R) kinase, 1 μM TK Substrate-biotin polypeptide substrate, 4.5 μM ATP, 1× enzymatic buffer, 5 mM MgCl2, and 1 mM DTT. The assay plate was White Proxiplate384-Plus plate (PerkinElmer), and the reaction was incubated at room temperature for 30 min, and the assay volume was 10 μL.
10 μL of detection reagent (containing 0.125 μM SA-XL665 and 5 μL 1×TK-Antibody) was added to the plate and incubated overnight at room temperature, and Synergy Neo 2 was used to read the plate.
The value of 665/620 Ratio minus the value of negative control wells without enzyme, then the obtained value was converted according to the following formula into inhibition rate (%)=(1−Ratiotest/Ratiomax)×100%. Ratiomax was the value of positive controls without tested compound, and Ratiotest was the value of each concentration of different compounds. IC50 (nM) data was obtained by 4 parameter curve fitting (see Table 3).

The test system of experiment [5] is KM12-LUC cells. Put plainly: KM12-LUC cell proliferation experiment (CellTiter-Glo). As to conditions: human colon cancer cell line with TPM3-NTRK1 fusion, 72 hours. Type of experiment: cell-based. On the procedure:
Human colon cancer cell line KM12-LUC (LUC, stably expressing Luciferase) expressing TPM3-NTRK1 fusion gene was used to evaluate cellular activity of the compounds. The TRK fusion gene in KM12-LUC cells makes the sustained activation of TRK and the downstream signaling pathways associated with cell proliferation such as MAPK-ERK, PI3K-AKT, etc independent of the stimulation of extracellular growth factor. […] The method was as follows: On the first day, the cells were seeded into 384-well plates at 2000 cells/well; on the second day, different concentrations of test compounds were added; and on the 5th day, CellTiter-Glo (Promega) was added to detect cell viability, and the cell proliferation inhibition rate at 72 hours was calculated. Statistical analysis was carried out by PRISM5 and the IC50 of the test compounds was calculated.

Recombinant human TRKA, sequence (P04629 33-796): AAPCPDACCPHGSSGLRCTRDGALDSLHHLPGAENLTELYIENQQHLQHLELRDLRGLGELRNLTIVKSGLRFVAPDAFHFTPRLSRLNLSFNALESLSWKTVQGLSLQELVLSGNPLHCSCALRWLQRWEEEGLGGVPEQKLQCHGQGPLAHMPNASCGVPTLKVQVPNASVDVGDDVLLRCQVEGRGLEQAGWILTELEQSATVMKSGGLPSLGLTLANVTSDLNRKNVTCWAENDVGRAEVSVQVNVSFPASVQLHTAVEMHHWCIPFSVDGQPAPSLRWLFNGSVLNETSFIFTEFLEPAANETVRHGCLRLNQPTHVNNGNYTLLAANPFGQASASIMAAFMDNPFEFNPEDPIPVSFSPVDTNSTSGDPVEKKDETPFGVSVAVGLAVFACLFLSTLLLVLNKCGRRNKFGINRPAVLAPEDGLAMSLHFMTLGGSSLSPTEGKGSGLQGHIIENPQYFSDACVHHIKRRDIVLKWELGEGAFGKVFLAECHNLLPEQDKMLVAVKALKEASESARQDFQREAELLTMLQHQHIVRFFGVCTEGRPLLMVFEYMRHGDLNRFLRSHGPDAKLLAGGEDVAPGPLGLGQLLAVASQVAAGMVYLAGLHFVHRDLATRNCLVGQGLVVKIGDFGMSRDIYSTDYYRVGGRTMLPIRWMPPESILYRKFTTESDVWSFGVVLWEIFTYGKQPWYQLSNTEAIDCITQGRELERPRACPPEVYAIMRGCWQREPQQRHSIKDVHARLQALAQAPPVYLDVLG
Recombinant human TRKC, sequence (Q16288 32-839): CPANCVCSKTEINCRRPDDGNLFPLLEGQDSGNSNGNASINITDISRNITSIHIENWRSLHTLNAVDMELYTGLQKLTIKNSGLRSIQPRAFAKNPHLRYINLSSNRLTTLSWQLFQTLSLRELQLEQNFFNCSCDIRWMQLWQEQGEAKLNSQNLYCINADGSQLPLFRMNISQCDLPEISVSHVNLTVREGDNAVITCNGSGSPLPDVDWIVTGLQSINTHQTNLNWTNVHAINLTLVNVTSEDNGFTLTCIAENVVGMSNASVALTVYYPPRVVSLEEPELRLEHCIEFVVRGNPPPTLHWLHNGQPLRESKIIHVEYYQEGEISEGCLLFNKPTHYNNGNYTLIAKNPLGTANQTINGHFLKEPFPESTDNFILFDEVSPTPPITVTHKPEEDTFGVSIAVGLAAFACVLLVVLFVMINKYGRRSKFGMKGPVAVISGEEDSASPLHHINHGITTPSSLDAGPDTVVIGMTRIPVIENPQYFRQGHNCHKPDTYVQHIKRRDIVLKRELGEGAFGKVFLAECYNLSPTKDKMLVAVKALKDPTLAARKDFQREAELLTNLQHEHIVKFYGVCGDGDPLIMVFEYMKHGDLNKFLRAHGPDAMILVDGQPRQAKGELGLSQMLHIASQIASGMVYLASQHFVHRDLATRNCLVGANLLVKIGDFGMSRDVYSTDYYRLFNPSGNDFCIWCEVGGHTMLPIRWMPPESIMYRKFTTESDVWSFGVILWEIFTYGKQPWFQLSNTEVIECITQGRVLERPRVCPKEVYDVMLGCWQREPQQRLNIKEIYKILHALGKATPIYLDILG
recombinant human TRKA (G595R), sequence (P04629 33-796 G595R): as the sequence (P04629 33-796) above, with G563R counted along it
Recombinant human TRKB, sequence (Q16620 32-822): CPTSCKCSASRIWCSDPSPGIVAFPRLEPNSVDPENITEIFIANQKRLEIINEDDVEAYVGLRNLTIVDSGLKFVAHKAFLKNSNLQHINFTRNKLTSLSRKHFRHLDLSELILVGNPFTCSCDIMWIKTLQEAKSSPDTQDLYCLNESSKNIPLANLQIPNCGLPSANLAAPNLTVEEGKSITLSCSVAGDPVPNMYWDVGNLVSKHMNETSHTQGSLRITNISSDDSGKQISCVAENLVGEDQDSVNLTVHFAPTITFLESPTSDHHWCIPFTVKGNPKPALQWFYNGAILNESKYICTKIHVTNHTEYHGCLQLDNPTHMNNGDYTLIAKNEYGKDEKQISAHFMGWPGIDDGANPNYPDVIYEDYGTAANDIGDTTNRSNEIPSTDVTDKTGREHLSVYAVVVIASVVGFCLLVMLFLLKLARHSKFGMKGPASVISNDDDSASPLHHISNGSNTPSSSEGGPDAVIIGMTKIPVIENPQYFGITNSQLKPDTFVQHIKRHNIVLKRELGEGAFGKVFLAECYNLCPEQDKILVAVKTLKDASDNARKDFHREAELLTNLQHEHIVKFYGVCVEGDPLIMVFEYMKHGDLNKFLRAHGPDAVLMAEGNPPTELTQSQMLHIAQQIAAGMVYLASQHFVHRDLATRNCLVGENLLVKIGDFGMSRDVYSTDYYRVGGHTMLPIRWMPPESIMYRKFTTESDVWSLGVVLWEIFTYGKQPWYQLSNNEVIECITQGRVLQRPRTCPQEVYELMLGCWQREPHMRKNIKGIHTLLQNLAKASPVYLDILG

Regarding `CC(C)OC(=O)c1cnc2[nH]nc(N3C[C@@H](F)C[C@@H]3c3cc(F)ccc3F)c2c1` [Example 19, isopropyl 3-((2R,4S)-2-(2,5-difluorophenyl)-4-fluoropyrrolidin-1-yl)-1H-pyrazolo[3,4-b]pyridine-5-carboxylate], the IC50 in experiment [1], in experiment [2], in experiment [3] and in experiment [4] was under 1 nM each time.

For `CC(C)(O)Cn1cc(-c2cnc3[nH]nc(N4C[C@@H](F)C[C@@H]4c4cc(F)ccc4F)c3c2)cn1` [Example 32, 1-(4-(3-((2R,4S)-2-(2,5-difluorophenyl)-4-fluoropyrrolidin-1-yl)-1H-pyrazolo[3,4-b]pyridin-5-yl)-1H-pyrazol-1-yl)-2-methylpropan-2-ol], the IC50 in experiment [1], in experiment [2], in experiment [3], in experiment [5] and in experiment [4] was under 1 nM each time.

Turning to `CS(=O)(=O)n1cc(-c2cnc3[nH]nc(N4C[C@@H](F)C[C@@H]4c4cc(F)ccc4F)c3c2)cn1` [Example 27, 3-((2R,4S)-2-(2,5-difluorophenyl)-4-fluoropyrrolidin-1-yl)-5-(1-(methylsulfonyl)-1H-pyrazol-4-yl)-1H-pyrazolo[3,4-b]pyridine], the IC50 in experiment [1], in experiment [2], in experiment [3] and in experiment [4] was under 1 nM throughout.

Regarding `COC(=O)c1cnc2[nH]nc(N3C[C@@H](F)C[C@@H]3c3cc(F)ccc3F)c2c1` [Example 13, Methyl 3-((2R,4S)-2-(2,5-difluorophenyl)-4-fluoropyrrolidin-1-yl)-1H-pyrazolo[3,4-b]pyridine-5-carboxylate], the IC50 in experiment [1], in experiment [2], in experiment [3] and in experiment [4] was under 1 nM in each case.

For `Fc1ccc(F)c([C@H]2C[C@H](F)CN2c2n[nH]c3ncc(-c4nn[nH]n4)cc23)c1` [Example 21, 3-((2R,4S)-2-(2,5-difluorophenyl)-4-fluoropyrrolidin-1-yl)-5-(2H-tetrazol-5-yl)-1H-pyrazolo[3,4-b]pyridine], the IC50 in experiment [1], in experiment [2], in experiment [3] and in experiment [4] was under 1 nM each time.

For `Fc1ccc(F)c([C@H]2C[C@H](F)CN2c2n[nH]c3ncc(-c4cnn([C@@H]5CCNC5)c4)cc23)c1` [Example 24, 3-((2R,4S)-2-(2,5-difluorophenyl)-4-fluoropyrrolidin-1-yl)-5-(1-((R)-pyrrolidin-3-yl)-1H-pyrazol-4-yl)-1H-pyrazolo[3,4-b]pyridine], the IC50 in experiment [1] was under 10 nM; in experiment [2], under 500 nM; in experiment [3], under 100 nM; in experiment [5], under 10 nM; in experiment [4], under 1 nM.

With `Cc1cn(CC(F)F)nc1-c1cnc2[nH]nc(N3C[C@@H](F)C[C@@H]3c3cc(F)ccc3F)c2c1` [Example 40, 5-(1-(2,2-difluoroethyl)-4-methyl-1H-pyrazol-3-yl)-3-((2R,4S)-2-(2,5-difluorophenyl)-4-fluoropyrrolidin-1-yl)-1H-pyrazolo[3,4-b]pyridine], the IC50 is under 1 nM in experiment [1], under 1 nM in experiment [2], under 1 nM in experiment [3] and under 10 nM in experiment [4].

Consider `NC(=O)c1cnc2[nH]nc(N3C[C@@H](F)C[C@@H]3c3cc(F)ccc3F)c2c1` [Example 5, 3-((2R,4S)-2-(2,5-difluorophenyl)-4-fluoropyrrolidin-1-yl)-1H-pyrazolo[3,4-b]pyridine-5-carboxamide], for which the IC50 in experiment [1], in experiment [2], in experiment [3], in experiment [5] and in experiment [4] was under 10 nM in each case.

As to `CN1CC(n2cc(-c3cnc4[nH]nc(N5C[C@@H](F)C[C@@H]5c5cc(F)ccc5F)c4c3)cn2)C1` [Example 29, 3-((2R,4S)-2-(2,5-difluorophenyl)-4-fluoropyrrolidin-1-yl)-5-(1-(1-methylazetidin-3-yl)-1H-pyrazol-4-yl)-1H-pyrazolo[3,4-b]pyridine], the IC50 in experiment [1] is under 1 nM; in experiment [2], under 1 nM; in experiment [3] it was under 1 nM; in experiment [5] it was under 10 nM; in experiment [4], under 10 nM.

In the case of `Fc1ccc(F)c([C@H]2C[C@H](F)CN2c2n[nH]c3ncc(-c4cnn(CC(F)(F)F)c4)cc23)c1` [Example 35, 3-((2R,4S)-2-(2,5-difluorophenyl)-4-fluoropyrrolidin-1-yl)-5-(1-(2,2,2-trifluoroethyl)-1H-pyrazol-4-yl)-1H-pyrazolo[3,4-b]pyridine], the IC50 is under 1 nM in experiment [1]; under 1 nM in experiment [2]; under 1 nM in experiment [3]; under 10 nM in experiment [5]; under 1 nM in experiment [4].

Consider `Fc1ccc(F)c([C@H]2C[C@H](F)CN2c2n[nH]c3ncc(-c4cnn(C5CCNCC5)c4)cc23)c1` [Example 22, 3-((2R,4S)-2-(2,5-difluorophenyl)-4-fluoropyrrolidin-1-yl)-5-(1-(piperidin-4-yl)-1H-pyrazol-4-yl)-1H-pyrazolo[3,4-b]pyridine], for which the IC50 was under 1 nM in experiment [1]; under 1 nM in experiment [2]; under 1 nM in experiment [3]; under 10 nM in experiment [5]; under 1 nM in experiment [4].

As to `Fc1ccc(F)c([C@H]2C[C@H](F)CN2c2n[nH]c3ncc(-c4cnn(CC5CNC5)c4)cc23)c1` [Example 34, 5-(1-(azetidin-3-ylmethyl)-1H-pyrazol-4-yl)-3-((2R,4S)-2-(2,5-difluorophenyl)-4-fluoropyrrolidin-1-yl)-1H-pyrazolo[3,4-b]pyridine], the IC50 in experiment [1] is under 1 nM; in experiment [2], under 1 nM; in experiment [3], under 1 nM; in experiment [4], under 10 nM.

In the case of `O=C(c1n[nH]c2nccc(N[C@@H]3CCC[C@H]3O)c12)N1C[C@@H](F)C[C@@H]1c1cc(F)ccc1F` [Example 43, ((2R,4S)-2-(2,5-difluorophenyl)-4-fluoropyrrolidin-1-yl)(4-(((1R,2R)-2-hydroxycyclopentyl)amino)-1H-pyrazolo[3,4-b]pyridin-3-yl)methanone], the IC50 in experiment [1], in experiment [2], in experiment [3] and in experiment [4] was under 1 nM each time.

For `Fc1ccc(F)c([C@H]2C[C@H](F)CN2c2n[nH]c3ncc(-c4nnc(COC(F)(F)F)o4)cc23)c1` [Example 41, 2-(3-((2R,4S)-2-(2,5-difluorophenyl)-4-fluoropyrrolidin-1-yl)-1H-pyrazolo[3,4-b]pyridin-5-yl)-5-((trifluoromethoxy)methyl)-1,3,4-oxadiazole], the IC50 in experiment [1], in experiment [2], in experiment [3] and in experiment [4] was under 1 nM each time.
